# Measured values reported in publication PMC8219027, “A small-molecule inhibitor of the BRCA2-RAD51 interaction modulates RAD51 assembly and potentiates DNA damage-induced cell death” (Cell Chemical Biology, 2021).
# Experiments:
# HepG2 = experiment: cells; settings: Homo sapiens, HepG2, read-out: Absolute EC50, growth inhibition
# MDA-MB-453 = experiment: cells; settings: Homo sapiens, MDA-MB-453, read-out: Absolute EC50, growth inhibition
# U118MG = experiment: cells; settings: Homo sapiens, U-118-MG, read-out: Absolute EC50, growth inhibition
# Raji = experiment: cells; settings: Homo sapiens, read-out: Absolute EC50, growth inhibition
# Mouse oral screen = settings: male, CD-1, mouse, in vivo, 50 mg/kg
# [1] = Microsomal intrinsic clearance; settings: human, human microsomes
# A549 = experiment: cells; settings: Homo sapiens, A549, read-out: Absolute EC50, growth inhibition
# BT20 = experiment: cells; settings: Homo sapiens, BT-20, read-out: Absolute EC50, growth inhibition
# HCT116 cells = experiment: SRB growth inhibition assay; assay type: cell-based, human; settings: for IC50 / GI50: Homo sapiens; for IC50: HCT-116, 96 h, Figure 6D (cell line not given); for GI50: HCT-116, geometrical mean, n = 18
# Description: Adherent cell lines (HCT116 and A549 cells) were seeded into flat-bottomed tissue culture 96-well plates in a volume of 150 μL of growth medium. HCT116 cells were seeded at 750 cells per well and A549 cells were seeded at 1000 cells per well. After 24 hours, compounds dissolved in DMSO were diluted in growth medium and were added to cells such that the final DMSO concentration was 1% (v/v) and the final volume in the well was 200 μL. Cells were then incubated in the presence of compound for 96 hours before fixation.
# Medium was removed from cells and 100 μL of cold 1% (v/v) trichloroacetic acid was added for 30 minutes at 4 degrees. The plates were washed three times in tap water and left to dry at room temperature. The fixed cells were stained in a 0.057% sulphorodamine B/1% acetic acid solution (w/v) and incubated at room temperature with agitation for 30 minutes after which the dye was removed and the plates washed in 1% (v/v) acetic acid and left to dry. The dye was then solubilised in 10 mM Tris solution (pH8) and incubated for 30 minutes under agitation. The plates were then read on a PHERAstar plus plate reader (BMG Labtech) using the fluorescence intensity module (540-590 nm). Growth inhibition was calculated relative to DMSO controls and GI50 values were calculated using Graphpad Prism.
# [2] = tested on: RAD51 clusters in EUFA423 + BRCA2 cells; experiment: RAD51 molecular clustering by SMLM (d-STORM); assay type: cell-based, human; settings: 25 μM
# Description: (§1) […]; [Howlett et al., 2002]). We developed, as isogenic controls, EUFA423 cells complemented by the expression of full-length BRCA2 (EUFA423 + BRCA2) ([Hattori et al., 2011]). […]. […] […].
# (§2) Single Molecule Localization Microscopy (SMLM) was achieved by direct Stochastic Optical Reconstruction Microscopy (d-STORM) as described ([Haas et al., 2018]). Briefly, samples were prepared for one colour 2D d-STORM utilizing a buffer containing 100 mM MEA-HCL (Sigma, M6500), 10% glucose (Sigma), 0.5 mg/ml glucose oxidase (Sigma, G2133) and 40 μg/ml catalase (Sigma, C100) in water at pH 7.5. Samples were imaged by direct STORM at room temperature in sealed 8-well ibidi μ-slides utilizing an inverted N-STROM microscope (Nikon Ti, Japan) equipped with an Apochromat 100x/1.49 NA oil immersion objective. Samples were let to equilibrate for at least 30 minutes before imaging to minimize thermal drift. Images were then acquired with highly inclined illumination and focus was maintained by hardware autofocusing (Nikon Perfect Focus System). AlexaFluor647 was first pumped in its dark state using the 640 nm laser line at maximum power (~150 mW) and then imaged continuously with a power density of ~3 kW/cm^2. Data were acquired in ‘streaming mode’ with a field-of-view (FOV) of 256x256 pixels (160 nm pixel size), at 65 frames per second for 25,000 frames with an EMCCD camera (iXon Ultra DU897, Andor). The sparsity of single molecules per frame was controlled using ~0.6 mW of the 405 nm laser. Images of AlexaFluor647 were acquired with a Quad Band Set for TIRF applications (Chroma, TRF89901, ET – 405/488/561/640 nm) and the ET645/75 m emission filter (Chroma).
# (§3) Single molecule data was analysed using the Grafeo program available at https://github.com/inatamara/Grafeo-dSTORM-analysis-, as described in ([Haas et al., 2018]). Briefly, all localizations with fewer than 1,000 detected photons or localization precision lower than 20 nm were discarded. Next, the data was filtered using 2D Voronoi diagrams, setting the minimum density (an inverse of Voronoi polygon VP size) to 5∗10^-5 nm^-2. […]
# [3] = tested on: RAD51 clusters in EUFA423 cells; experiment: RAD51 molecular clustering by SMLM (d-STORM); assay type: cell-based, human; settings: 25 μM, 3 h after 3 Gy IR
# Description: as §1, §2, §3
# [4] = Mouse iv pharmacokinetics; settings: male, CD-1, mouse, in vivo, 1 mg/kg
# U20S = experiment: cells; settings: Homo sapiens, read-out: Absolute EC50, growth inhibition
# 5637 = experiment: cells; settings: Homo sapiens, read-out: Absolute EC50, growth inhibition
# Caco-2 = Caco-2 permeability; assay type: in vitro ADME; settings: summary of Table S1
# Caco-2 permeability = assay type: in vitro ADME; settings: human, Caco-2
# OVCAR3 = experiment: cells; settings: Homo sapiens, OVCAR-3, read-out: Absolute EC50, growth inhibition
smiles,measurement,setting,value
"COc1ccc([C@H](C)NC(=O)[C@@H]2C[C@@H](O)CN2C(=O)CNC(=O)c2ccc3cc(F)ccc3n2)c(Cl)c1 [CAM833, N-(2-((2S,4R)-2-(((S)-1-(2-chloro-4-methoxyphenyl)ethyl)carbamoyl)-4-hydroxypyrrolidin-1-yl)-2-oxoethyl)-6-fluoroquinoline-2-carboxamide]",EC50,HepG2,68.1 µM
same,EC50,MDA-MB-453,48 µM
same,EC50,U118MG,90.3 µM
same,EC50,Raji,95.6 µM
same,Cmax,Mouse oral screen,8320 ng/mL
same,bioavailability,Mouse oral screen,44%
same,half-life,[1],1.28 h
same,microsomal CLint,[1],18 ± 4.52 µL/min/mg
same,EC50,A549,39 µM
same,EC50,BT20,61.9 µM
same,GI50 with 3 Gy IR lower than GI50 for compound alone,HCT116 cells; HCT116,more than 2 fold
same,IC50,"HCT116 cells; 0 Gy IR, SRB 96 h",63.5 µM
same,IC50,"HCT116 cells; 1 Gy IR, SRB 96 h",30.4 µM
same,IC50,"HCT116 cells; 2 Gy IR, SRB 96 h",13 µM
same,IC50,"HCT116 cells; 3 Gy IR, SRB 96 h",11.8 µM
same,GI50,"HCT116 cells; HCT116, CAM833 alone, 96 h exposure",38 µM
same,GI50,"HCT116 cells; HCT116, combined with 3 Gy IR",14 µM
same,effect of combination with increasing doses of IR on growth suppression (in words),"HCT116 cells; fixed 10 μM dose, 0 to 3 Gy IR, SRB 96 h",potentiates
same,formation of elongated RAD51 filaments (in words),[2]; 3 Gy IR,prevents the formation of elongated filaments
same,RAD51 accumulation in damage-induced foci (in words),[2]; 3 h after 3 Gy IR,significantly reduces
same,RAD51 accumulation in damage-induced foci (in words),[3],significantly reduces
same,Vd,[4],2.51 L/kg
same,clearance,[4],44.6 mL/min/kg
same,half-life,[4],1.44 h
same,EC50,U20S,40.5 µM
same,EC50,5637,84.5 µM
same,permeability (in words),Caco-2,moderate
same,efflux ratio,Caco-2 permeability,195
same,Papp A→B,"Caco-2 permeability; A to B, read-out: Caco-2 permeability AtoB Papp",0.23 ×10⁻⁶ cm/s
same,EC50,OVCAR3,53.6 µM
